biological target: T1, Nav1.7 (or SCN9A) channel; HEK cells stably transfected with hSCN9A (Homo sapiens, UniProt Q15858); experiment: Nav1.7 block, PatchXpress 7000 automated whole-cell voltage clamp, estimated IC50 (EIC50); assay type: cell-based; settings: estimated IC50; hSCN9A HEK cells, PatchXpress platform; Examples 283-814
T1 construct: expressed in transfected cells
T1 sequence (Q15858 whole entry): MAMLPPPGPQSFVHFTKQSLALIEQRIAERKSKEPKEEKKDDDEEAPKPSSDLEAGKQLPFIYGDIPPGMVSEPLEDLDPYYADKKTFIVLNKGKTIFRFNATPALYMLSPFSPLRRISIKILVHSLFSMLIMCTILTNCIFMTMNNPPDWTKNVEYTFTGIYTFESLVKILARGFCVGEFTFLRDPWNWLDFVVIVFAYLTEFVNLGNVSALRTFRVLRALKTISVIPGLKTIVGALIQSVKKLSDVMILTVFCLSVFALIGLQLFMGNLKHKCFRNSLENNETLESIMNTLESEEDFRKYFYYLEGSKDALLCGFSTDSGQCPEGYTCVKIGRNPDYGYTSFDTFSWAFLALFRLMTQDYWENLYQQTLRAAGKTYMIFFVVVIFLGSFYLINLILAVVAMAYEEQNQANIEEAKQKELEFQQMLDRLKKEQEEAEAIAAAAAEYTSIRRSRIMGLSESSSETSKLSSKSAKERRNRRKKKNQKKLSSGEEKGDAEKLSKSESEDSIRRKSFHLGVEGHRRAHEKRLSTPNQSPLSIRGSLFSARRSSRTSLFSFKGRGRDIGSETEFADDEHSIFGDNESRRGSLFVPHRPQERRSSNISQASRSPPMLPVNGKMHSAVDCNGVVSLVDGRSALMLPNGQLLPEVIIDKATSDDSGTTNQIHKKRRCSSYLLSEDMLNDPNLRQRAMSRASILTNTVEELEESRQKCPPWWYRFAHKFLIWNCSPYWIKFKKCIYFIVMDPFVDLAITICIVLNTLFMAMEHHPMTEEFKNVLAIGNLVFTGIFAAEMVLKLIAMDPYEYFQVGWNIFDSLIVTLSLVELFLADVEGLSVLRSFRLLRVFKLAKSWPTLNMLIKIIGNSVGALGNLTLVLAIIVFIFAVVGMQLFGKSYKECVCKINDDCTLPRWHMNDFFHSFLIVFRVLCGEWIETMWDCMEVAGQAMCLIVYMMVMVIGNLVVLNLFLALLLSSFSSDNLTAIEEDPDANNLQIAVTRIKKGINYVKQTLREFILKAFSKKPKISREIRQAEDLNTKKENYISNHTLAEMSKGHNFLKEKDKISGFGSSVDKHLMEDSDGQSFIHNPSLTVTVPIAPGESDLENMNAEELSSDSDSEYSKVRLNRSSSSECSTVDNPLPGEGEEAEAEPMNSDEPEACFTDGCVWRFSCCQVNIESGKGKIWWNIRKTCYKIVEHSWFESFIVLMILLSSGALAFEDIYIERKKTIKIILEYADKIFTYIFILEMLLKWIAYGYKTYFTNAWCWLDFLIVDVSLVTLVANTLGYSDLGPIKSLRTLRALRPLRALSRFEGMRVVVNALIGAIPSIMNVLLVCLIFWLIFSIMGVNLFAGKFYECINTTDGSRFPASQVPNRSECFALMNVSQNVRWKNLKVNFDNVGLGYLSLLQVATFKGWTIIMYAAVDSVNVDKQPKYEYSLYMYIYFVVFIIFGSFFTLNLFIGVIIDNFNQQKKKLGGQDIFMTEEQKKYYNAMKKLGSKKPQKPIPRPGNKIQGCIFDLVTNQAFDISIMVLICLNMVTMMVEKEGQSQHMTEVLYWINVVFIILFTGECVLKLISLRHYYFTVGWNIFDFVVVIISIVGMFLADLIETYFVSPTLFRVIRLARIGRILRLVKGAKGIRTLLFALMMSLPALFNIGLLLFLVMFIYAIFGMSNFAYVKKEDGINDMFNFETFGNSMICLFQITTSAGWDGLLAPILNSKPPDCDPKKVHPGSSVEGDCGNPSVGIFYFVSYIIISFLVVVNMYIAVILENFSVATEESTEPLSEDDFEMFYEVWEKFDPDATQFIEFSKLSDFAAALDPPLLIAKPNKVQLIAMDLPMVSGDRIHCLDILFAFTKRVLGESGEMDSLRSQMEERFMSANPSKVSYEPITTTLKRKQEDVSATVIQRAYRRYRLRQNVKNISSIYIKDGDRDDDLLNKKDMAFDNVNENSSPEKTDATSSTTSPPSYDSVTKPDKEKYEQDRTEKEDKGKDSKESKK

Row | Compound | IC50 [µM]
1 | Cn1nccc1-c1cc(Cl)ccc1Oc1ccc(S(=O)(=O)Nc2ncsc2Cl)cc1C#N [Example 413, 4-[4-chloro-2-(1-methyl-1H-pyrazol-5-yl)phenoxy]-N-(5-chloro-1,3-thiazol-4-yl)-3-cyanobenzenesulfonamide] | 12
2 | Cn1cc(-c2cc(Cl)ccc2Oc2ccc(S(=O)(=O)Nc3cscn3)cc2C#N)cn1 [Example 414, 4-[4-chloro-2-(1-methyl-1H-pyrazol-4-yl)phenoxy]-3-cyano-N-1,3-thiazol-4-ylbenzenesulfonamide] | 1
3 | N#Cc1cc(S(=O)(=O)Nc2cscn2)ccc1Oc1ccc(F)cc1-c1cnn(CC(F)(F)F)c1 [Example 415, 4-{4-fluoro-2-[1-(2,2,2-trifluoroethyl)-1H-pyrazol-4-yl]phenoxy}-3-cyano-N-1,3-thiazol-4-ylbenzenesulfonamide] | >1
4 | N#Cc1cc(S(=O)(=O)Nc2nccs2)ccc1Oc1ccc(Cl)cc1-n1cnnn1 [Example 416, 4-(4-chloro-2-(1H-tetrazol-1-yl)phenoxy)-3-cyano-N-(thiazol-2-yl)benzenesulfonamide] | 1.6
5 | N#Cc1cc(S(=O)(=O)Nc2cscn2)ccc1Oc1ccc(Cl)c(Cn2ccnc2)c1 [Example 418, 4-[4-chloro-3-(1H-imidazol-1-ylmethyl)phenoxy]-3-cyano-N-1,3-thiazol-4-ylbenzenesulfonamide] | 2.3
6 | CC(C)(C)n1cc(Cc2cccc(Oc3ccc(S(=O)(=O)Nc4cscn4)cc3C#N)c2)cn1 [Example 419, 4-{3-[(1-tert-butyl-1H-pyrazol-4-yl)methyl]phenoxy}-3-cyano-N-1,3-thiazol-4-ylbenzenesulfonamide] | 2.1
7 | N#Cc1cc(S(=O)(=O)Nc2ncc(F)cn2)ccc1Oc1ccccc1-c1ccccc1 [Example 427, 4-(biphenyl-2-yloxy)-3-cyano-N-(5-fluoropyrimidin-2-yl)benzenesulfonamide] | 4.3
8 | Cc1cncnc1NS(=O)(=O)c1ccc(Oc2ccccc2-c2ccccc2)c(C#N)c1 [Example 428, 4-(biphenyl-2-yloxy)-3-cyano-N-(5-methylpyrimidin-4-yl)benzenesulfonamide] | >10
9 | Cc1cnc(NS(=O)(=O)c2ccc(Oc3ccccc3-c3ccccc3)c(C#N)c2)nc1 [Example 429, 4-(biphenyl-2-yloxy)-3-cyano-N-(5-methylpyrimidin-2-yl)benzenesulfonamide] | >10
10 | N#Cc1cc(S(=O)(=O)Nc2ncc(Cl)cn2)ccc1Oc1ccccc1-c1ccccc1 [Example 430, 4-(biphenyl-2-yloxy)-N-(5-chloropyrimidin-2-yl)-3-cyanobenzenesulfonamide] | 12

Results, then the compound that gave them:

Row | IC50 [µM] | Compound
11 | 24 | N#Cc1cc(S(=O)(=O)Nc2ncccc2F)ccc1Oc1ccccc1-c1ccccc1 [Example 420, 4-(biphenyl-2-yloxy)-3-cyano-N-(3-fluoropyridin-2-yl)benzenesulfonamide]
12 | 12 | N#Cc1cccc(NS(=O)(=O)c2ccc(Oc3ccccc3-c3ccccc3)c(C#N)c2)n1 [Example 421, 4-(biphenyl-2-yloxy)-3-cyano-N-(6-cyanopyridin-2-yl)benzenesulfonamide]
13 | >1 | N#Cc1ccnc(NS(=O)(=O)c2ccc(Oc3ccccc3-c3ccccc3)c(C#N)c2)c1 [Example 422, 4-(biphenyl-2-yloxy)-3-cyano-N-(4-cyanopyridin-2-yl)benzenesulfonamide]
14 | >3 | Cc1ccc(NS(=O)(=O)c2ccc(Oc3ccccc3-c3ccccc3)c(C#N)c2)nc1 [Example 424, 4-(biphenyl-2-yloxy)-3-cyano-N-(5-methylpyridin-2-yl)benzenesulfonamide]
15 | 11 | Cc1ccnc(NS(=O)(=O)c2ccc(Oc3ccccc3-c3ccccc3)c(C#N)c2)n1 [Example 425, 4-(biphenyl-2-yloxy)-3-cyano-N-(4-methylpyrimidin-2-yl)benzenesulfonamide]
16 | 36 | N#Cc1cc(S(=O)(=O)Nc2cnc(Cl)nc2)ccc1Oc1ccccc1-c1ccccc1 [Example 426, 4-(biphenyl-2-yloxy)-N-(2-chloropyrimidin-5-yl)-3-cyanobenzenesulfonamide]
